Measurements taken from ChEMBL document CHEMBL1152920, “Monoterpene glucosides from Paeonia lactiflora” (J Nat Prod, 2009).
Active and inactive are the calls of the source. The rule behind the calls is not given here.

Each compound was assayed on PC-12 (assay: Cytoprotective activity against hydrogen peroxide-induced cell damage in rat PC12 cells assessed as cell viability treated 2 hrs before hydrogen peroxide challenge by MTT assay).
Type: functional, cell-based

| SMILES | Activity |
| --- | --- |
| COCC1=CO[C@]2(O[C@@H]3O[C@H](CO)[C@@H](O)[C@H](O)[C@H]3O)C[C@H]1C(=O)C=C2C | Active |
| C=C1C(OC)O[C@]2(O[C@@H]3O[C@H](CO)[C@@H](O)[C@H](O)[C@H]3O)C[C@H]1C(=O)C=C2C (some centres undefined) | Active |
| CC1=CC(=O)[C@@H]2C[C@@]1(O[C@@H]1O[C@H](CO)[C@@H](O)[C@H](O)[C@H]1O)OC=C2CO | Active |
| COC1O[C@@]2(C)CC(=O)[C@@H]3C[C@]2(O[C@@H]2O[C@H](CO)[C@@H](O)[C@H](O)[C@H]2O)[C@]13CO (some centres undefined) | Active |
